This note sets out measurements from US20200121677A1, “SUBSTITUTED 6,7-DIHYDROPYRAZOLO[1,5-a]PYRAZINES AS NEGATIVE ALLOSTERIC MODULATORS OF MGLUR2 RECEPTORS” (Janssen Pharmaceutica NV, priority 2014, published 2020).

The test system of one data set is Male Wiga Wistar rats. The data set is described as follows: Reversal of LY-404039-induced decrease of palpebral opening in apomorphine-challenged rats. The format is in vivo, rat. The settings on record: Rattus norvegicus; rats, route PO (route cell empty for Co. 88 and 84); read-out: ED50 APO LY-404039 (Reversal of LY-404039-induced decrease of palpebral opening in apomorphine challenged rats). As to the method: 1) Reversal of LY-404039-Induced Decrease of Palpebral Opening in Apomorphine-Challenged Rats.
Male Wiga Wistar rats (Crl:WI; Charles River Germany; 220±40 g) were housed under standard laboratory conditions (21±2° C.; 50-65% relative humidity; light-dark cycle set at 12 h; lights on at 6.00 h) and fasted overnight prior to the start of the experiments (tap water remained available ad libitum). During the test period, they were housed in individual cages. Palpebral opening was scored every 5 min over the first hour after injection of apomorphine (1.0 mg/kg, i.v.) in animals either pretreated or not pretreated with LY-404039 (2.5 mg/kg, s.c.) at 1 h prior to the apomorphine injection. The animals were also pretreated with test compound or solvent at a predefined interval before apomorphine challenge. The score system was: (5) exophthalmos, (4) wide open, (3) open for three-quarters, (2) half open, (1) open for one-quarter, (0) closed. The scores for palpebral opening were cumulated over the 60-min observation period.

The next data set has as its system rats. Nature of the data set: Reversal of the effect of the mGluR2 PAM JNJ-42153605-induced inhibition of scopolamine-induced hyperlocomotion. It counts as in vivo, rat. The settings on record: Rattus norvegicus; rats, route PO, criterion total distance >1500 cm; read-out: ED50 SCOP JNJ-42153605 (Reversal of the effect of JNJ 42153605 on scopolamine-induced hyperlocomotion). A digest of the protocol: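 Rats dosed with test compound 60 min pre-recording, challenged with JNJ-42153605 (20 mg/kg, i.v.) at 30 min and scopolamine (0.16 mg/kg, i.v.) just before recording. Total distance travelled over first 30 min video-tracked under 4–8 lux. All-or-none reversal criterion: total distance >1500 cm.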

A further data set concerns the target human mGlu2 receptor (Homo sapiens, UniProt Q14416). The data set is described as follows: [35S]GTPγS binding assay, mGluR2 negative allosteric modulation (membranes from CHO cells transfected with human mGlu2 receptor, glutamate ~EC80 60 μM).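 Further: membranes preincubated 30 min at 30 °C with compound plus glutamate, then [35S]GTPγS (0.1 nM) incorporation measured over another 30 min at 30 °C.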
Another data set concerns Wiga rats. The data set is described as follows: Induction of mydriasis (pupil diameter, test 1 and test 2). The format is in vivo, rat. The settings on record: Rattus norvegicus, route PO, pupil diameter >25 units, maximum over 1, 2 or 3 h post-administration, read-out: ED50 MYD Test 2 (Induction of mydriasis). As to the method:
3) Induction of Mydriasis
The pupil diameter of Wiga rats was measured with a microscopic micrometer (1 unit=1/24 mm). Criteria for drug-induced effects: pupil diameter >25 units for mydriasis (in controls: 1.9%) 1 h post-administration of the test compound (test 1) or 1, 2 or 3 h post-administration of the test compound (test 2, wherein the maximum pupil diameter over the full 3 h period is reported).

human mGlu2 receptor, sequence (Q14416 19-872): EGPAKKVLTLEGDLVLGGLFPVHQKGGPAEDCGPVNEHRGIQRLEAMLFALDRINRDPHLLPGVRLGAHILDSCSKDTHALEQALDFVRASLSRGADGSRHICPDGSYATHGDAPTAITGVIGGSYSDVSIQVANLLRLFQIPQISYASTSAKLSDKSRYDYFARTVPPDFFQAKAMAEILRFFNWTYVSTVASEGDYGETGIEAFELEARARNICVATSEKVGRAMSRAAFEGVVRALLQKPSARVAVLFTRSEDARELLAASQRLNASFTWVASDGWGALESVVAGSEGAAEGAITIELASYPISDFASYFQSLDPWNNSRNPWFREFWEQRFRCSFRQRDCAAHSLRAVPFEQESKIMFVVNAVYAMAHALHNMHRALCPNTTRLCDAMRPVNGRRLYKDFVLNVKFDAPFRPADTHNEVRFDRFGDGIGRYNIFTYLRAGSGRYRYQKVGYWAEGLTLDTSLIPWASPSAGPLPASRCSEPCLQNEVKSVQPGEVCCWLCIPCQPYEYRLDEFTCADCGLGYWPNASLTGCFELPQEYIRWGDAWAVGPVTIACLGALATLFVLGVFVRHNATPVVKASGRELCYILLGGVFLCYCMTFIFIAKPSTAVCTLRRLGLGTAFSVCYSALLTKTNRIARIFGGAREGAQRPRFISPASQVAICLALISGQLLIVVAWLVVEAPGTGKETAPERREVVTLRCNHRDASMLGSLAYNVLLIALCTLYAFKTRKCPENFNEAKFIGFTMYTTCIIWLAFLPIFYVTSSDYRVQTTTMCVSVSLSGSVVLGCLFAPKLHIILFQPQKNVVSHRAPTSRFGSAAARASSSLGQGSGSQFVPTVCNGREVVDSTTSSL

What is called ED50 is the dose at which the effect has come halfway, by size or by number of responders. A word on the melting point: it is the temperature of the solid-liquid transition. The IC50 is the concentration that inhibits the measured activity by half. A high value points to lower potency. As usually defined, the Emax is the greatest response seen or fitted, relative to the assay's reference. Consider `C[C@H]1CN(c2ccc(C(F)(F)F)cc2)C(=O)c2c(C(=O)Nc3ccccn3)cnn21` [compound 9], for which the melting point amounted to 246.7 °C. Moreover, in the data set with Male Wiga Wistar rats, the ED50 is over 2.5 mg/kg. For the same molecule, the ED50 in the data set with rats turned out to be 0.32 mg/kg. Besides, the IC50 on human mGlu2 receptor (GTPγS - hmGluR2 anGT pIC50, membranes with human mGlu2 receptor, glutamate ~EC80 (60 μM), pIC50 = -log IC50 (M)) was 1.12e-08 M. Besides, the maximum response (Emax) on human mGlu2 receptor (read-out: GTPγS - hmGluR2 anGT Emax, relative maximal effect: maximal % inhibition relative to the control glutamate response) came out at 103%. Further, the ED50 in the data set on Wiga rats is over 10 mg/kg.
